Legend:
[1] = target: T1, Voltage-gated potassium channel, IKs; KCNQ1(Kv7.1)/KCNE1(MinK) (Homo sapiens, UniProt P15382+P51787); test: Inhibition of human IKs-channel expressed in Xenopus oocytes; format: cell-based, Oocyte
[2] = target: T1, Voltage-gated potassium channel, IKs; KCNQ1(Kv7.1)/KCNE1(MinK); test: Inhibition of human IKs-channel expressed in Xenopus oocytes,(Experiment 1); format: cell-based, Oocyte

T1 sequence (P51787 whole entry): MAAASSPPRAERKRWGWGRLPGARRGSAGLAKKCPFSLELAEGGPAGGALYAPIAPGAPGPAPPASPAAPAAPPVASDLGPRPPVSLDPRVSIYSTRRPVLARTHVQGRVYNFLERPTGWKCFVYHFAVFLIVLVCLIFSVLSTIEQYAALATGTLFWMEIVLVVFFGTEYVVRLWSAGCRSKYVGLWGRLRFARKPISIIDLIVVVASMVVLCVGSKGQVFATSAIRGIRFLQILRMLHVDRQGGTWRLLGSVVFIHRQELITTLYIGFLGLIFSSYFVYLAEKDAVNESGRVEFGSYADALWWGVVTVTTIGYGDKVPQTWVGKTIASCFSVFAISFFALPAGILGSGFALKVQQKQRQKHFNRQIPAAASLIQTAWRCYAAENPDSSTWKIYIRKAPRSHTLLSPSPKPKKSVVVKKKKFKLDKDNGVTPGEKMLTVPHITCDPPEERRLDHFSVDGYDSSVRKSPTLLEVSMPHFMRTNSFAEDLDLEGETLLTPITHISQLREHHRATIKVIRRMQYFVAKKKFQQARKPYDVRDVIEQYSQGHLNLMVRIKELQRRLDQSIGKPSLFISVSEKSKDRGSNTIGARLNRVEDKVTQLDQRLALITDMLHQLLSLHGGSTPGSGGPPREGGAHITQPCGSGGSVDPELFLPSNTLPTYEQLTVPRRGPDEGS

IC50 [1] [µM]	IC50 [2] [µM]	SMILES
6.9		CCS(=O)(=O)N(C)C1c2cc(C#N)ccc2OC(C)(C)C1O (configuration not stated)
3.1		CCS(=O)(=O)N(C)C1c2ccccc2OC(C)(C)C1O (configuration not stated)
0.25		CCCCOc1ccc2c(c1)C(N(C)S(C)(=O)=O)C(O)C(C)(C)O2 (configuration not stated)
	44.5	CCS(=O)(=O)N(C)[C@@H]1c2cc(C#N)ccc2OC(C)(C)[C@H]1O
58		CCCCS(=O)(=O)N(C)C1c2cc(C#N)ccc2OC(C)(C)C1O (configuration not stated)
0.05		CCS(=O)(=O)N(C)[C@H]1c2cc(OCc3ccccc3)ccc2OC(C)(C)[C@@H]1O
0.4		CCS(=O)(=O)N(C)[C@@H]1c2cc(OCc3ccccc3)ccc2OC(C)(C)[C@H]1O
	5	CCS(=O)(=O)N(C)[C@H]1c2cc(C#N)ccc2OC(C)(C)[C@@H]1O
1.2		CCS(=O)(=O)N(C)C1c2cc(F)ccc2OC(C)(C)C1O (configuration not stated)
2.2		CCS(=O)(=O)N(C)[C@@H]1c2cc(F)ccc2OC(C)(C)[C@H]1O
0.2		CN(C1c2cc(OCc3ccccc3)ccc2OC(C)(C)C1O)S(C)(=O)=O (configuration not stated)
1.1		CN(C1c2cc(Cl)ccc2OC(C)(C)C1O)S(C)(=O)=O (configuration not stated)
